The target in experiment [1] is recombinant human ACC1 (rhACC1) (Homo sapiens (Human), UniProt Q13085). The experiment in a line: recombinant hACC1 Transcreener ADP detection FP assay. In kind it is biochemical. As to conditions: 50 μM ATP, 120 min at 25° C. Here is the method: (§1) For example direct inhibition of ACC activity, for the compound of Formula (I) was determined using preparations of recombinant human ACC1 (rhACC1) and recombinant human ACC2 (rhACC2).
[1] Preparation of rhACC1. Two liters of SF9 cells, infected with recombinant baculovirus containing full length human ACC1 cDNA, were suspended in ice-cold lysis buffer (25 mM Tris, pH 7.5; 150 mM NaCl; 10% glycerol; 5 mM imidazole (EMD Bioscience; Gibbstown, N.J.); 2 mM TCEP (BioVectra; Charlottetown, Canada); Benzonase nuclease (10000 U/100 g cell paste; Novagen; Madison, Wis.); EDTA-free protease inhibitor cocktail (1 tab/50 mL; Roche Diagnostics; Mannheim, Germany). Cells were lysed by 3 cycles of freeze-thaw and centrifuged at 40,000×g for 40 minutes (4° C.). Supernatant was directly loaded onto a HisTrap FF crude column (GE Healthcare; Piscataway, N.J.) and eluted with an imidazole gradient up to 0.5 M over 20 column volumes (CV). ACC1-containing fractions were pooled and diluted 1:5 with 25 mM Tris, pH 7.5, 2 mM TCEP, 10% glycerol and direct loaded onto a CaptoQ (GE Healthcare) column and eluted with an NaCl gradient up to 1 M over 20 CV's. Phosphate groups were removed from purified ACC1 by incubation with lambda phosphatase (100 U/10 μM target protein; New England Biolabs; Beverly, Mass.) for 14 hours at 4° C.; okadaic acid was added (1 μM final concentration; Roche Diagnostics) to inhibit the phosphatase. Purified ACC1 was exchanged into 25 mM Tris, pH 7.5, 2 mM TCEP, 10% glycerol, 0.5 M NaCl by 6 hour dialysis at 4° C. Aliquots were prepared and frozen at −80° C.
[2] Measurement of rhACC1 inhibition. hACC1 was assayed in a Costar #3676 (Costar, Cambridge, Mass.) 384-well plate using the Transcreener ADP detection FP assay kit (Bellbrook Labs, Madison, Wis.) using the manufacturer's recommended conditions for a 50 μM ATP reaction. The final conditions for the assay were 50 mM HEPES, pH 7.2, 10 mM MgCl2, 7.5 mM tripotassium citrate, 2 mM DTT, 0.1 mg/mL BSA, 30 μM acetyl-CoA, 50 μM ATP, and 10 mM KHCO3 Typically, a 10 μl reaction was run for 120 min at 25° C., and 10 μl of Transcreener stop and detect buffer was added and the combination incubated at room temp for an additional 1 hour. The data was acquired on a Envision Fluorescence reader (PerkinElmer) using a 620 excitation Cy5 FP general dual mirror, 620 excitation Cy5 FP filter, 688 emission (S) and a 688 (P) emission filter.

Experiment [2] deals with recombinant human ACC2 (rhACC2) (Homo sapiens (Human), UniProt O00763). The experiment in a line: recombinant hACC2 Transcreener ADP detection FP assay. Type of experiment: biochemical. As to conditions: 50 uM ATP, 50 min at 25° C. Here is the method: as §1
[3] Preparation of rhACC2. Human ACC2 inhibition was measured using purified recombinant human ACC2 (hrACC2). Briefly, a full length Cytomax clone of ACC2 was purchased from Cambridge Bioscience Limited and was sequenced and subcloned into PCDNA5 FRT TO-TOPO (Invitrogen, Carlsbad, Calif.). The ACC2 was expressed in CHO cells by tetracycline induction and harvested in 5 liters of DMEM/F12 with glutamine, biotin, hygromycin and blasticidin with 1 μg/mL tetracycline (Invitrogen, Carlsbad, Calif.). The conditioned medium containing ACC2 was then applied to a Softlink Soft Release Avidin column (Promega, Madison, Wis.) and eluted with 5 mM biotin. […] The purified ACC2 was dialyzed in 50 mM Tris, 200 mM NaCl, 4 mM DTT, 2 mM EDTA, and 5% glycerol. […] For measurement of ACC2 activity and assessment of ACC2 inhibition, test compounds were dissolved in DMSO and added to the rhACC2 enzyme as a 5× stock with a final DMSO concentration of 1%.
[4] Measurement of human ACC2 inhibition. hACC2 was assayed in a Costar #3676 (Costar, Cambridge, Mass.) 384-well plate using the Transcreener ADP detection FP assay kit (Bellbrook Labs, Madison, Wis.) using the manufacturer's recommended conditions for a 50 uM ATP reaction. The final conditions for the assay were 50 mM HEPES, pH 7.2, 5 mM MgCl2, 5 mM tripotassium citrate, 2 mM DTT, 0.1 mg/mL BSA, 30 μM acetyl-CoA, 50 μM ATP, and 8 mM KHCO3 Typically, a 10 μl reaction was run for 50 min at 25° C., and 10 μl of Transcreener stop and detect buffer was added and the combination incubated at room temp for an additional 1 hour. The data was acquired on an Envision Fluorescence reader (PerkinElmer) using a 620 excitation Cy5 FP general dual mirror, 620 excitation Cy5 FP filter, 688 emission (S) and a 688 (P) emission filter.

Chain of recombinant human ACC2 (rhACC2) (O00763 whole entry V2141I): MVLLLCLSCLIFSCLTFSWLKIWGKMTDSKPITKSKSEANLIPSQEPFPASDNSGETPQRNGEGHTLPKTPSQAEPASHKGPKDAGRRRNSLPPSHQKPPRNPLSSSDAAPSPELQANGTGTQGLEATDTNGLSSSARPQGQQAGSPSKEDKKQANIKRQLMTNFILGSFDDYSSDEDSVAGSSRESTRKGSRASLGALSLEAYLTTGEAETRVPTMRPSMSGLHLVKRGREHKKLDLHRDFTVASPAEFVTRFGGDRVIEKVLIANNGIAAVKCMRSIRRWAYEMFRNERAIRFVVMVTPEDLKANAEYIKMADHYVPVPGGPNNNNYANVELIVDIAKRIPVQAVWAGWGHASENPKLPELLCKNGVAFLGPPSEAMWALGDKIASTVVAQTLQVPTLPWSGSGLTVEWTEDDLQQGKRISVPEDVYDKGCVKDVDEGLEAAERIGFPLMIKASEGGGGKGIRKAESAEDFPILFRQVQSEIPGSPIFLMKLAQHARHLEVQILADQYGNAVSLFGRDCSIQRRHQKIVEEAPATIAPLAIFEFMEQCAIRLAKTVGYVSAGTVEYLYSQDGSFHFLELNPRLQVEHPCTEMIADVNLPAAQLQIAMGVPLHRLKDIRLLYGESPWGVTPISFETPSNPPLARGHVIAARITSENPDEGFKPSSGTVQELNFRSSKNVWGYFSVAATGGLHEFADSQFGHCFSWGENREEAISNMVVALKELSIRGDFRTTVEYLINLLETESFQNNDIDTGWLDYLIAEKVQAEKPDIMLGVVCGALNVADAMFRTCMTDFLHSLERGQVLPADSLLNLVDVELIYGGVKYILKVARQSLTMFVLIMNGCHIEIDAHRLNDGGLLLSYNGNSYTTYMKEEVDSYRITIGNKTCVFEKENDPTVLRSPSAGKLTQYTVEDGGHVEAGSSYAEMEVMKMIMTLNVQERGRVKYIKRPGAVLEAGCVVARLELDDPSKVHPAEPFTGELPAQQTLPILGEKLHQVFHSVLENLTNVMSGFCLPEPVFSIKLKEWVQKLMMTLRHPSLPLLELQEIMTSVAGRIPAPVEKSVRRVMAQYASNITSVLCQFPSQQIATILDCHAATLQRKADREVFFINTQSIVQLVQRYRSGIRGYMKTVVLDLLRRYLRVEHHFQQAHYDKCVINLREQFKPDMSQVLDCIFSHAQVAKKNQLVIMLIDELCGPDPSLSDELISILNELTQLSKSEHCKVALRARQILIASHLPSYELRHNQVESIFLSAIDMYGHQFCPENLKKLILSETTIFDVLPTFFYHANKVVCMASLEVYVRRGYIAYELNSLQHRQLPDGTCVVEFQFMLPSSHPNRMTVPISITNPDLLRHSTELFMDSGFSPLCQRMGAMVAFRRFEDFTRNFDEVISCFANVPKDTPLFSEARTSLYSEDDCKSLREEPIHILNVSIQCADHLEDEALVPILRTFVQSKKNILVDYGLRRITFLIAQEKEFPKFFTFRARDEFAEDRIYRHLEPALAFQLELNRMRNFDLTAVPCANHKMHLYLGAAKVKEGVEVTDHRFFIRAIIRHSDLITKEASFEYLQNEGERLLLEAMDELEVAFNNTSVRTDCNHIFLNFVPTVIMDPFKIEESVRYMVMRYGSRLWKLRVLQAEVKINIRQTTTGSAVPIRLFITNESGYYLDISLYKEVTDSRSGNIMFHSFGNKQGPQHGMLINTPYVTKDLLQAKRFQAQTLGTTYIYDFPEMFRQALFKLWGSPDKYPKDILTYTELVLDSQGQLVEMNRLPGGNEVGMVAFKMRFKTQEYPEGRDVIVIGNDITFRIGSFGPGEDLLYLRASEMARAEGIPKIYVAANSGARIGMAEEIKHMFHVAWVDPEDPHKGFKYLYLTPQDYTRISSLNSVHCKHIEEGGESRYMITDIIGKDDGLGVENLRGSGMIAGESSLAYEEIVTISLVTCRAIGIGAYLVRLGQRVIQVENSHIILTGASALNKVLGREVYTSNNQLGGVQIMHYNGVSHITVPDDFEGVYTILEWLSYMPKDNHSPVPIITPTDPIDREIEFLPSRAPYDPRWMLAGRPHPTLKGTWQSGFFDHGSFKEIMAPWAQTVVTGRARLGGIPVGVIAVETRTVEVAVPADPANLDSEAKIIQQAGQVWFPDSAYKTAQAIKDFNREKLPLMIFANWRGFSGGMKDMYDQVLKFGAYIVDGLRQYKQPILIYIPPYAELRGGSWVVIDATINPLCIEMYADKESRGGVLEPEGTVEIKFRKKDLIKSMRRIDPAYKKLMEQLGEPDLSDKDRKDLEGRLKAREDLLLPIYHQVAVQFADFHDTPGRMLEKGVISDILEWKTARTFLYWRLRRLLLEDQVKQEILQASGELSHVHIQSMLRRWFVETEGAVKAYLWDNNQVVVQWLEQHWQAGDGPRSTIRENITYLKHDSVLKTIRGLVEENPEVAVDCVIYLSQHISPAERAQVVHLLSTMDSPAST

Regarding `Cc1nc2cc(C(=O)N3CCC4(CC3)Cc3cn(C(C)C)nc3C(=O)N4)ccc2[nH]1` [Example 40], the values for the 50% inhibitory concentration (IC50) in experiment [1] and in experiment [2] were 656 nM and 177 nM, respectively.

Consider `Cc1cc(C(=O)N2CCC3(CC2)Cc2cn(C(C)C)nc2C(=O)N3)cc2cn[nH]c12` [Example 42], for which the half-inhibitory concentration (IC50) was 68 nM in experiment [1] and 29 nM in experiment [2].

Consider `Cc1cc(C(=O)N2CCC3(CC2)Cc2cn(C(C)(C)C)nc2C(=O)N3)cc2cn[nH]c12` [Example 44], for which the figures for the IC50 in experiment [1] and in experiment [2] were 26 nM and 10 nM, respectively.

For the molecule `COc1ccc2cc(C(=O)N3CCC4(CC3)Cc3cn(C(C)(C)C)nc3C(=O)N4)ccc2c1` [Example 46], the concentration for half-maximal inhibition (IC50) in experiment [1] came out at 36 nM; in experiment [2], 5.3 nM.

For the molecule `COc1ccc2ncc(C(=O)N3CCC4(CC3)Cc3cn(C(C)(C)C)nc3C(=O)N4)cc2c1` [Example 48], the IC50 is 30 nM in experiment [1] and 9.2 nM in experiment [2].

Consider `COc1ccc2ccc(C(=O)N3CCC4(CC3)Cc3cn(C(C)(C)C)nc3C(=O)N4)cc2c1` [Example 49], for which the IC50 in experiment [1] amounted to 8.5 nM; in experiment [2], 3.8 nM.

Regarding `COc1cccc2cc(C(=O)N3CCC4(CC3)Cc3cn(C(C)(C)C)nc3C(=O)N4)ccc12` [Example 50], the IC50 in experiment [1] stood at 30 nM; in experiment [2], 7.5 nM.

With `COc1cc(C(=O)N2CCC3(CC2)Cc2cn(C(C)(C)C)nc2C(=O)N3)nc2c(OC)cccc12` [Example 51], the results for the IC50 in experiment [1] and in experiment [2] were 15 nM and 4.4 nM, respectively.

`CC(C)(C)n1cc2c(n1)C(=O)NC1(CCN(C(=O)c3ccc4cn[nH]c4c3)CC1)C2` [Example 52]: the concentration for half-maximal inhibition (IC50) in experiment [1] was 88 nM; in experiment [2], 17 nM.

Regarding `CC(C)(C)n1cc2c(n1)C(=O)NC1(CCN(C(=O)c3ccc4c(C#N)n[nH]c4c3)CC1)C2` [Example 53], the IC50 was 47 nM in experiment [1] and 13 nM in experiment [2].

Consider `CC(C)(C)n1cc2c(n1)C(=O)NC1(CCN(C(=O)c3ccc4[nH]nc(C(N)=O)c4c3)CC1)C2` [Example 54], for which the 50% inhibitory concentration (IC50) in experiment [1] turned out to be 21 nM; in experiment [2], 5.1 nM.

In the case of `COc1ccc(C)c2[nH]c(C(=O)N3CCC4(CC3)Cc3cn(C(C)(C)C)nc3C(=O)N4)cc12` [Example 56], the figures for the IC50 in experiment [1] and in experiment [2] were 7.4 nM and 1.9 nM, respectively.

In the case of `CC(C)(C)n1cc2c(n1)C(=O)NC1(CCN(C(=O)c3ccc4nc(N)ccc4c3)CC1)C2` [Example 58], the IC50 came to 149 nM in experiment [1] and 12 nM in experiment [2].

`CC(C)(C)n1cc2c(n1)C(=O)NC1(CCN(C(=O)c3ccc4cnc(N)cc4c3)CC1)C2` [Example 59]: the 50% inhibitory concentration (IC50) in experiment [1] is 123 nM; in experiment [2], 14 nM.

Regarding `CC(C)(C)n1cc2c(n1)C(=O)NC1(CCN(C(=O)c3ccc4[nH]nc(C#N)c4c3)CC1)C2` [Example 60], the 50% inhibitory concentration (IC50) in experiment [1] came out at 43 nM; in experiment [2], 14 nM.

On to `CC(C)(C)n1cc2c(n1)C(=O)NC1(CCN(C(=O)c3ccc4[nH]nc(N)c4c3)CC1)C2` [Example 61], for which the IC50 in experiment [1] amounted to 94 nM; in experiment [2] it was 13 nM.

`Cc1cc(C(=O)N2CCC3(CC2)Cc2cn(C(C)(C)C)nc2C(=O)N3)cc2c(Cl)n[nH]c12` [Example 62]: the IC50 in experiment [1] is 8.4 nM; in experiment [2] it was 2.1 nM.

As to `CC(C)(C)n1cc2c(n1)C(=O)NC1(CCN(C(=O)c3ccc4ncccc4c3)CC1)C2` [Example 63], the figures for the 50% inhibitory concentration (IC50) in experiment [1] and in experiment [2] were 160 nM and 28 nM, respectively.

For the molecule `CC(C)(C)n1cc2c(n1)C(=O)NC1(CCN(C(=O)c3ccc4c(N)n[nH]c4c3)CC1)C2` [Example 65], the IC50 was determined as 256 nM in experiment [1] and 56 nM in experiment [2].

Regarding `COc1cc(C(=O)N2CCC3(CC2)Cc2cn(C(C)(C)C)nc2C(=O)N3)cc2[nH]ncc12` [Example 66], the results for the concentration for half-maximal inhibition (IC50) in experiment [1] and in experiment [2] were 17 nM and 2.4 nM, respectively.

Regarding `Cn1[nH]c2ccc(C(=O)N3CCC4(CC3)Cc3cn(C(C)(C)C)nc3C(=O)N4)cc2c1=O` [Example 67], the figures for the IC50 in experiment [1] and in experiment [2] were 1340 nM and 311 nM, respectively.

For `COc1cccc2cc(C(=O)N3CCC4(CC3)Cc3cn(C(C)(C)C)nc3C(=O)N4)cnc12` [Example 68], the IC50 in experiment [1] came to 221 nM; in experiment [2], 68 nM.

On to `CNc1ccc2cc(C(=O)N3CCC4(CC3)Cc3cn(C(C)(C)C)nc3C(=O)N4)ccc2n1` [Example 69], for which the IC50 in experiment [1] was determined as 185 nM; in experiment [2] it was 28 nM.

For `COc1cccc2ccc(C(=O)N3CCC4(CC3)Cc3cn(C(C)(C)C)nc3C(=O)N4)cc12` [Example 70], the 50% inhibitory concentration (IC50) in experiment [1] came to 5.8 nM; in experiment [2], 2.4 nM.

As to `CC(C)(C)n1cc2c(n1)C(=O)NC1(CCN(C(=O)c3ccc4ccc(N)nc4c3)CC1)C2` [Example 72], the concentration for half-maximal inhibition (IC50) in experiment [1] came out at 28 nM; in experiment [2], 5.9 nM.

For the molecule `CNc1cc2cc(C(=O)N3CCC4(CC3)Cc3cn(C(C)(C)C)nc3C(=O)N4)ccc2cn1` [Example 73], the IC50 in experiment [1] amounted to 48 nM; in experiment [2], 5.5 nM.

Turning to `COc1cccc2ncc(C(=O)N3CCC4(CC3)Cc3cn(C(C)(C)C)nc3C(=O)N4)cc12` [Example 74], the IC50 in experiment [1] is 18 nM; in experiment [2] it was 3.2 nM.

With `CNc1nc2cc(C(=O)N3CCC4(CC3)Cc3cn(C(C)(C)C)nc3C(=O)N4)ccc2[nH]1` [Example 75], the results for the half-maximal inhibitory concentration (IC50) in experiment [1] and in experiment [2] were 79 nM and 11 nM, respectively.

Turning to `CC(C)(C)n1cc2c(n1)C(=O)NC1(CCN(C(=O)c3ccc4[nH]c(N)nc4c3)CC1)C2` [Example 77], the concentration for half-maximal inhibition (IC50) in experiment [1] is 80 nM; in experiment [2], 8.4 nM.

As to `CC(C)(C)n1cc2c(n1)C(=O)NC1(CCN(C(=O)c3cc(C(F)(F)F)c4[nH]ncc4c3)CC1)C2` [Example 78], the half-inhibitory concentration (IC50) in experiment [1] stood at 155 nM; in experiment [2], 34 nM.

As to `COc1n[nH]c2cc(C(=O)N3CCC4(CC3)Cc3cn(C(C)(C)C)nc3C(=O)N4)ccc12` [Example 79], the IC50 in experiment [1] was determined as 216 nM; in experiment [2], 18 nM.

For the molecule `COc1n[nH]c2ccc(C(=O)N3CCC4(CC3)Cc3cn(C(C)(C)C)nc3C(=O)N4)cc12` [Example 81], the figures for the half-maximal inhibitory concentration (IC50) in experiment [1] and in experiment [2] were 46 nM and 5.3 nM, respectively.

Turning to `CC(C)(C)n1cc2c(n1)C(=O)NC1(CCN(C(=O)c3ccc4c(C(F)(F)F)n[nH]c4c3)CC1)C2` [Example 83], the IC50 worked out at 163 nM in experiment [1] and 19 nM in experiment [2].

As to `Cn1[nH]c2cc(C(=O)N3CCC4(CC3)Cc3cn(C(C)(C)C)nc3C(=O)N4)ccc2c1=O` [Example 84], the 50% inhibitory concentration (IC50) in experiment [1] came to 194 nM; in experiment [2], 33 nM.

`COc1cc(C(=O)N2CCC3(CC2)Cc2cn(C(C)(C)C)nc2C(=O)N3)cc2c(C)n[nH]c12` [Example 87]: the IC50 turned out to be 17 nM in experiment [1] and 2.1 nM in experiment [2].

On to `CNc1n[nH]c2cc(C(=O)N3CCC4(CC3)Cc3cn(C(C)(C)C)nc3C(=O)N4)ccc12` [Example 89], for which the IC50 in experiment [1] was determined as 343 nM; in experiment [2], 44 nM.

Turning to `COc1cc2ccc(C(=O)N3CCC4(CC3)Cc3cn(C(C)(C)C)nc3C(=O)N4)cc2cn1` [Example 90], the figures for the concentration for half-maximal inhibition (IC50) in experiment [1] and in experiment [2] were 209 nM and 31 nM, respectively.
